Among the data in ChEMBL document CHEMBL3407484, “Evolution in medicinal chemistry of ursolic acid derivatives as anticancer agents” (Eur J Med Chem, 2015) are IC50 values, retold here.

Common to all, as to assay type: functional, cell-based
Assay [1] in a line: Cytotoxicity against human SKOV3 cells by MTT assay. The note with it: SK-OV-3.
Assay [2] is described as follows: Cytotoxicity against human BGC823 cells by MTT assay. Conditions: BGC-823. For orientation: Tetrazolium assays rely on reduction of a dye to a coloured formazan, in cell work by metabolically active cells.
Another assay deals with HeLa. Kind of assay: Cytotoxicity against human HeLa cells by MTT assay.
In another assay the test system is HepG2. Kind of assay: Cytotoxicity against human HepG2 cells by MTT assay.

With `CC(=O)O[C@H]1CC[C@]2(C)[C@H]3CC=C4[C@@H]5[C@@H](C)[C@H](C)CC[C@]5(C(=O)NCCCN5CCOCC5)CC[C@@]4(C)[C@]3(C)CC[C@H]2C1(C)C`, the values for the IC50 (in assay [1]; in assay [2]; in the assay on HeLa) were 7.4 µM, 4.46 µM and 2.71 µM, respectively.
Regarding `C[C@H]1[C@H](C)CC[C@]2(C(=O)O)CC[C@]3(C)C(=CC[C@@H]4[C@@]5(C)CC[C@H](OC(=O)CCC(=O)OCCOc6no[n+]([O-])c6S(=O)(=O)c6ccccc6)C(C)(C)[C@@H]5CC[C@]43C)[C@H]12`, half-maximal inhibition in the assay on HepG2 (IC50) was put at 3.2 µM.
